Values of other authors in publication PMC5613053 (Investigational New Drugs, 2017).

Columns and labels:
MV4–11 cells = conditions: read-out: Concentration inhibiting growth of MV4–11 cells; cited from earlier work
MV4–11-luc cells = tested on: MV4–11-luc cells; parameters: method as in PMID 24046014; conditions: maximum tolerated dose; cited from earlier work

CC1(COc2ccc3c(c2)ncn3-c2ccc3cccc(N4CCC(N)CC4)c3n2)COC1 [crenolanib]
IC50 (MV4–11 cells): 1.3 nM | Efficacy in xenograft model (MV4–11-luc cells): limited efficacy
